# From ChEMBL document CHEMBL3885881, “DrugMatrix”
# Species: Rattus norvegicus
# Test: DrugMatrix - Regimen: Daily Repeat
# Assay type: toxicity, organism-based, Sprague-Dawley
# Set-up: regimen Daily Repeat, gender Male, age 6-8 weeks
# Conditions: in vivo, po, route oral GAVAGE; for ABSOLUTE MONOCYTE / ABSOLUTE SEGMENTED NEUTROPHIL / BASOPHIL / EOSINOPHIL / ERYTHROCYTE COUNT / HEMATOCRIT / HEMOGLOBIN / LEUKOCYTE COUNT / LYMPHOCYTE / MEAN CORPUSCULAR HEMOGLOBIN / MEAN CORPUSCULAR HEMOGLOBIN CONCENTRATION / MEAN CORPUSCULAR VOLUME / MONOCYTE / NEUTROPHIL / NUCLEATED RED BLOOD CELLS / PLATELET COUNT / ABSOLUTE BASOPHIL / ABSOLUTE EOSINOPHIL / ABSOLUTE LYMPHOCYTE: tissue Blood; for ALANINE AMINOTRANSFERASE / ALBUMIN / ALKALINE PHOSPHATASE / ASPARTATE AMINOTRANSFERASE / BLOOD UREA NITROGEN / CARBON DIOXIDE / CHLORIDE / CHOLESTEROL / CREATINE PHOSPHOKINASE / CREATININE / GLUCOSE / LACTATE DEHYDROGENASE / LIPASE / PHOSPHORUS / POTASSIUM / SODIUM / TOTAL BILIRUBIN / TOTAL PROTEIN / URIC ACID: tissue Plasma
# [1] = 20 mg/kg, 120 h, dose level Low, time 5 day, […]
# [2] = 54 mg/kg, 72 h, dose level M1, time 3 day, vehicle 100 % WATER
# [3] = 54 mg/kg, 120 h, dose level M1, time 5 day, vehicle 100 % WATER
# [4] = 160 mg/kg, 72 h, dose level High, time 3 day, […]
# [5] = 160 mg/kg, 120 h, dose level High, time 5 day, […]
smiles,measurement,setting,value
Cn1cnc([N+](=O)[O-])c1Sc1ncnc2nc[nH]c12 [AZATHIOPRINE],ABSOLUTE MONOCYTE,[1],73.67 CELLS/uL
same,ABSOLUTE SEGMENTED NEUTROPHIL,[1],134 CELLS/uL
same,BASOPHIL,[1],0%
same,EOSINOPHIL,[1],0%
same,ERYTHROCYTE COUNT,[1],5 x10E6/uL
same,HEMATOCRIT,[1],31.27%
same,HEMOGLOBIN,[1],12.3 G/DL
same,LEUKOCYTE COUNT,[1],5.33 x10E3/uL
same,LYMPHOCYTE,[1],96%
same,MEAN CORPUSCULAR HEMOGLOBIN,[1],24.53 pg
same,MEAN CORPUSCULAR HEMOGLOBIN CONCENTRATION,[1],39.33 G/DL
same,MEAN CORPUSCULAR VOLUME,[1],62.43 fL
same,MONOCYTE,[1],1.33%
same,NEUTROPHIL,[1],2.67%
same,NUCLEATED RED BLOOD CELLS,[1],0 /100WBC
same,PLATELET COUNT,[1],1346.67 x10E3/uL
same,ALANINE AMINOTRANSFERASE,[1],45.33 u/L
same,ALBUMIN,[1],4.33 G/DL
same,ALKALINE PHOSPHATASE,[1],305 u/L
same,ASPARTATE AMINOTRANSFERASE,[1],83 u/L
same,BLOOD UREA NITROGEN,[1],14 mg/dL
same,CARBON DIOXIDE,[1],29.33 mmol/L
same,CHLORIDE,[1],104.33 MEQ/L
same,CHOLESTEROL,[1],75 mg/dL
same,CREATINE PHOSPHOKINASE,[1],212.33 u/L
same,CREATININE,[1],0.4 mg/dL
same,GLUCOSE,[1],152.67 mg/dL
same,LACTATE DEHYDROGENASE,[1],68 u/L
same,LIPASE,[1],13 u/L
same,PHOSPHORUS,[1],10.93 mg/dL
same,POTASSIUM,[1],5.68 MEQ/L
same,SODIUM,[1],146.9 MEQ/L
same,TOTAL BILIRUBIN,[1],0.1 mg/dL
same,TOTAL PROTEIN,[1],6.67 G/DL
same,URIC ACID,[1],0.33 mg/dL
same,ABSOLUTE BASOPHIL,[2],0 CELLS/uL
same,ABSOLUTE EOSINOPHIL,[2],0 CELLS/uL
same,ABSOLUTE LYMPHOCYTE,[2],10600.67 CELLS/uL
same,ABSOLUTE MONOCYTE,[2],39.33 CELLS/uL
same,ABSOLUTE SEGMENTED NEUTROPHIL,[2],326.67 CELLS/uL
same,BASOPHIL,[2],0%
same,EOSINOPHIL,[2],0%
same,ERYTHROCYTE COUNT,[2],5.04 x10E6/uL
same,HEMATOCRIT,[2],31.57%
same,HEMOGLOBIN,[2],12.03 G/DL
same,LEUKOCYTE COUNT,[2],10.97 x10E3/uL
same,LYMPHOCYTE,[2],96.67%
same,MEAN CORPUSCULAR HEMOGLOBIN,[2],23.9 pg
same,MEAN CORPUSCULAR HEMOGLOBIN CONCENTRATION,[2],38.13 G/DL
same,MEAN CORPUSCULAR VOLUME,[2],62.73 fL
same,MONOCYTE,[2],0.33%
same,NEUTROPHIL,[2],3%
same,NUCLEATED RED BLOOD CELLS,[2],0 /100WBC
same,PLATELET COUNT,[2],1322.33 x10E3/uL
same,ALANINE AMINOTRANSFERASE,[2],39.67 u/L
same,ALBUMIN,[2],4.23 G/DL
same,ALKALINE PHOSPHATASE,[2],313.33 u/L
same,ASPARTATE AMINOTRANSFERASE,[2],66 u/L
same,BLOOD UREA NITROGEN,[2],10.67 mg/dL
same,CARBON DIOXIDE,[2],28.67 mmol/L
same,CHLORIDE,[2],100 MEQ/L
same,CHOLESTEROL,[2],81.67 mg/dL
same,CREATINE PHOSPHOKINASE,[2],160.33 u/L
same,CREATININE,[2],0.25 mg/dL
same,GLUCOSE,[2],157.33 mg/dL
same,LACTATE DEHYDROGENASE,[2],114.33 u/L
same,LIPASE,[2],13 u/L
same,PHOSPHORUS,[2],10.63 mg/dL
same,POTASSIUM,[2],6.03 MEQ/L
same,SODIUM,[2],141.9 MEQ/L
same,TOTAL BILIRUBIN,[2],0.13 mg/dL
same,TOTAL PROTEIN,[2],5.97 G/DL
same,URIC ACID,[2],1.17 mg/dL
same,ABSOLUTE BASOPHIL,[3],0 CELLS/uL
same,ABSOLUTE EOSINOPHIL,[3],0 CELLS/uL
same,ABSOLUTE LYMPHOCYTE,[3],4380.67 CELLS/uL
same,ABSOLUTE MONOCYTE,[3],0 CELLS/uL
same,ABSOLUTE SEGMENTED NEUTROPHIL,[3],119.33 CELLS/uL
same,BASOPHIL,[3],0%
same,EOSINOPHIL,[3],0%
same,ERYTHROCYTE COUNT,[3],4.85 x10E6/uL
same,HEMATOCRIT,[3],31.6%
same,HEMOGLOBIN,[3],12.13 G/DL
same,LEUKOCYTE COUNT,[3],4.5 x10E3/uL
same,LYMPHOCYTE,[3],97.33%
same,MEAN CORPUSCULAR HEMOGLOBIN,[3],25 pg
same,MEAN CORPUSCULAR HEMOGLOBIN CONCENTRATION,[3],38.37 G/DL
same,MEAN CORPUSCULAR VOLUME,[3],65.07 fL
same,MONOCYTE,[3],0%
same,NEUTROPHIL,[3],2.67%
same,NUCLEATED RED BLOOD CELLS,[3],0 /100WBC
same,PLATELET COUNT,[3],1116.33 x10E3/uL
same,ALANINE AMINOTRANSFERASE,[3],29.67 u/L
same,ALBUMIN,[3],4.6 G/DL
same,ALKALINE PHOSPHATASE,[3],184.33 u/L
same,ASPARTATE AMINOTRANSFERASE,[3],65.33 u/L
same,BLOOD UREA NITROGEN,[3],14 mg/dL
same,CARBON DIOXIDE,[3],33 mmol/L
same,CHLORIDE,[3],96.33 MEQ/L
same,CHOLESTEROL,[3],91.33 mg/dL
same,CREATINE PHOSPHOKINASE,[3],188.33 u/L
same,CREATININE,[3],0.26 mg/dL
same,GLUCOSE,[3],159.67 mg/dL
same,LACTATE DEHYDROGENASE,[3],98.33 u/L
same,LIPASE,[3],14 u/L
same,PHOSPHORUS,[3],9.43 mg/dL
same,POTASSIUM,[3],5.71 MEQ/L
same,SODIUM,[3],143.23 MEQ/L
same,TOTAL BILIRUBIN,[3],0.13 mg/dL
same,TOTAL PROTEIN,[3],6.97 G/DL
same,URIC ACID,[3],0.23 mg/dL
same,ABSOLUTE BASOPHIL,[4],0 CELLS/uL
same,ABSOLUTE EOSINOPHIL,[4],0 CELLS/uL
same,ABSOLUTE LYMPHOCYTE,[4],4093.67 CELLS/uL
same,ABSOLUTE MONOCYTE,[4],37.33 CELLS/uL
same,ABSOLUTE SEGMENTED NEUTROPHIL,[4],535.67 CELLS/uL
same,BASOPHIL,[4],0%
same,EOSINOPHIL,[4],0%
same,ERYTHROCYTE COUNT,[4],5.12 x10E6/uL
same,HEMATOCRIT,[4],34.5%
same,HEMOGLOBIN,[4],13.07 G/DL
same,LEUKOCYTE COUNT,[4],4.67 x10E3/uL
same,LYMPHOCYTE,[4],87%
same,MEAN CORPUSCULAR HEMOGLOBIN,[4],25.6 pg
same,MEAN CORPUSCULAR HEMOGLOBIN CONCENTRATION,[4],37.87 G/DL
same,MEAN CORPUSCULAR VOLUME,[4],67.47 fL
same,MONOCYTE,[4],0.67%
same,NEUTROPHIL,[4],12.33%
same,NUCLEATED RED BLOOD CELLS,[4],0 /100WBC
same,PLATELET COUNT,[4],1028 x10E3/uL
same,ALANINE AMINOTRANSFERASE,[4],39.33 u/L
same,ALBUMIN,[4],3.87 G/DL
same,ALKALINE PHOSPHATASE,[4],207.67 u/L
same,ASPARTATE AMINOTRANSFERASE,[4],81.33 u/L
same,BLOOD UREA NITROGEN,[4],10.33 mg/dL
same,CARBON DIOXIDE,[4],36 mmol/L
same,CHLORIDE,[4],107.67 MEQ/L
same,CHOLESTEROL,[4],84.67 mg/dL
same,CREATINE PHOSPHOKINASE,[4],296.67 u/L
same,CREATININE,[4],0.13 mg/dL
same,GLUCOSE,[4],192.33 mg/dL
same,LACTATE DEHYDROGENASE,[4],87.67 u/L
same,LIPASE,[4],11.33 u/L
same,PHOSPHORUS,[4],7.6 mg/dL
same,POTASSIUM,[4],5.08 MEQ/L
same,SODIUM,[4],138.17 MEQ/L
same,TOTAL BILIRUBIN,[4],0.13 mg/dL
same,TOTAL PROTEIN,[4],5.63 G/DL
same,URIC ACID,[4],0.3 mg/dL
same,ABSOLUTE BASOPHIL,[5],0 CELLS/uL
same,ABSOLUTE EOSINOPHIL,[5],0 CELLS/uL
same,ABSOLUTE LYMPHOCYTE,[5],1710 CELLS/uL
same,ABSOLUTE MONOCYTE,[5],38 CELLS/uL
same,ABSOLUTE SEGMENTED NEUTROPHIL,[5],152 CELLS/uL
same,BASOPHIL,[5],0%
same,EOSINOPHIL,[5],0%
same,ERYTHROCYTE COUNT,[5],7.48 x10E6/uL
same,HEMATOCRIT,[5],45.7%
same,HEMOGLOBIN,[5],15.7 G/DL
same,LEUKOCYTE COUNT,[5],1.9 x10E3/uL
same,LYMPHOCYTE,[5],90%
same,MEAN CORPUSCULAR HEMOGLOBIN,[5],21 pg
same,MEAN CORPUSCULAR HEMOGLOBIN CONCENTRATION,[5],34.4 G/DL
same,MEAN CORPUSCULAR VOLUME,[5],61.1 fL
same,MONOCYTE,[5],2%
same,NEUTROPHIL,[5],8%
same,NUCLEATED RED BLOOD CELLS,[5],0 /100WBC
same,PLATELET COUNT,[5],666 x10E3/uL
same,ALANINE AMINOTRANSFERASE,[5],237 u/L
same,ALBUMIN,[5],2.8 G/DL
same,ALKALINE PHOSPHATASE,[5],281 u/L
same,ASPARTATE AMINOTRANSFERASE,[5],835 u/L
same,BLOOD UREA NITROGEN,[5],15 mg/dL
same,CARBON DIOXIDE,[5],36 mmol/L
same,CHLORIDE,[5],106 MEQ/L
same,CHOLESTEROL,[5],13 mg/dL
same,CREATINE PHOSPHOKINASE,[5],348 u/L
same,CREATININE,[5],0.38 mg/dL
same,GLUCOSE,[5],192 mg/dL
same,LACTATE DEHYDROGENASE,[5],280 u/L
same,LIPASE,[5],10 u/L
same,PHOSPHORUS,[5],6.3 mg/dL
same,POTASSIUM,[5],4.73 MEQ/L
same,SODIUM,[5],147 MEQ/L
same,TOTAL BILIRUBIN,[5],0.2 mg/dL
same,TOTAL PROTEIN,[5],3.4 G/DL
same,URIC ACID,[5],0.2 mg/dL
